± gives the uncertainty stated by the source.
Assay: xn = mol fraction of the nth substance listed

Structure (SMILES): O=P([O-])([O-])[O-].[Na+].[Na+].[Na+] + CCCCCCCCCCCC[N+](C)(C)C.[Br-] + O
- electrical conductivity (298.15 K, 101 kPa, x2 = 0, x1 = 0.0001802): 0.411 ± 0.0008 S/m
- electrical conductivity (298.15 K, 101 kPa, x2 = 0, x1 = 0.001799): 2.052 ± 0.004 S/m
- electrical conductivity (298.15 K, 101 kPa, x2 = 5.23e-06, x1 = 0.0001802): 0.411 ± 0.0008 S/m
- electrical conductivity (298.15 K, 101 kPa, x2 = 7.86e-06, x1 = 0.001799): 2.048 ± 0.004 S/m
- electrical conductivity (298.15 K, 101 kPa, x2 = 1.209e-05, x1 = 0.0001802): 0.4123 ± 0.0008 S/m
- electrical conductivity (298.15 K, 101 kPa, x2 = 1.591e-05, x1 = 0.001799): 2.047 ± 0.004 S/m
- electrical conductivity (298.15 K, 101 kPa, x2 = 1.895e-05, x1 = 0.0001802): 0.4139 ± 0.0008 S/m
- electrical conductivity (298.15 K, 101 kPa, x2 = 2.633e-05, x1 = 0.001799): 2.047 ± 0.004 S/m
- electrical conductivity (298.15 K, 101 kPa, x2 = 2.887e-05, x1 = 0.0001802): 0.4171 ± 0.0008 S/m
- electrical conductivity (298.15 K, 101 kPa, x2 = 3.573e-05, x1 = 0.0001802): 0.4194 ± 0.0008 S/m
- electrical conductivity (298.15 K, 101 kPa, x2 = 3.912e-05, x1 = 0.001799): 2.048 ± 0.004 S/m
- electrical conductivity (298.15 K, 101 kPa, x2 = 4.223e-05, x1 = 0.0001802): 0.4213 ± 0.0008 S/m
- electrical conductivity (298.15 K, 101 kPa, x2 = 4.89e-05, x1 = 0.0001802): 0.4235 ± 0.0008 S/m
- electrical conductivity (298.15 K, 101 kPa, x2 = 5.21e-05, x1 = 0.001799): 2.049 ± 0.004 S/m
- electrical conductivity (298.15 K, 101 kPa, x2 = 5.756e-05, x1 = 0.0001802): 0.4261 ± 0.0009 S/m
- electrical conductivity (298.15 K, 101 kPa, x2 = 6.605e-05, x1 = 0.0001802): 0.429 ± 0.0009 S/m
- electrical conductivity (298.15 K, 101 kPa, x2 = 6.673e-05, x1 = 0.001799): 2.051 ± 0.004 S/m
- electrical conductivity (298.15 K, 101 kPa, x2 = 7.416e-05, x1 = 0.0001801): 0.4318 ± 0.0009 S/m
- electrical conductivity (298.15 K, 101 kPa, x2 = 8.172e-05, x1 = 0.001799): 2.054 ± 0.004 S/m
- electrical conductivity (298.15 K, 101 kPa, x2 = 8.246e-05, x1 = 0.0001801): 0.4346 ± 0.0009 S/m
- electrical conductivity (298.15 K, 101 kPa, x2 = 9.058e-05, x1 = 0.0001801): 0.4375 ± 0.0009 S/m
- electrical conductivity (298.15 K, 101 kPa, x2 = 9.852e-05, x1 = 0.0001801): 0.4405 ± 0.0009 S/m
- electrical conductivity (298.15 K, 101 kPa, x2 = 9.872e-05, x1 = 0.001799): 2.059 ± 0.004 S/m
- electrical conductivity (298.15 K, 101 kPa, x2 = 0.000107, x1 = 0.0001801): 0.444 ± 0.0009 S/m
- electrical conductivity (298.15 K, 101 kPa, x2 = 0.0001133, x1 = 0.001799): 2.063 ± 0.004 S/m
- electrical conductivity (298.15 K, 101 kPa, x2 = 0.0001155, x1 = 0.0001801): 0.4477 ± 0.0009 S/m
- electrical conductivity (298.15 K, 101 kPa, x2 = 0.0001247, x1 = 0.0001801): 0.4515 ± 0.0009 S/m
- electrical conductivity (298.15 K, 101 kPa, x2 = 0.0001301, x1 = 0.001799): 2.067 ± 0.004 S/m
- electrical conductivity (298.15 K, 101 kPa, x2 = 0.0001324, x1 = 0.0001801): 0.4544 ± 0.0009 S/m
- electrical conductivity (298.15 K, 101 kPa, x2 = 0.0001404, x1 = 0.0001801): 0.4573 ± 0.0009 S/m
- electrical conductivity (298.15 K, 101 kPa, x2 = 0.000147, x1 = 0.001798): 2.07 ± 0.01 S/m
- electrical conductivity (298.15 K, 101 kPa, x2 = 0.000148, x1 = 0.0001801): 0.4602 ± 0.0009 S/m
- electrical conductivity (298.15 K, 101 kPa, x2 = 0.0001566, x1 = 0.0001801): 0.4633 ± 0.0009 S/m
- electrical conductivity (298.15 K, 101 kPa, x2 = 0.0001632, x1 = 0.001798): 2.074 ± 0.004 S/m
- electrical conductivity (298.15 K, 101 kPa, x2 = 0.0001658, x1 = 0.0001801): 0.4669 ± 0.0009 S/m
- electrical conductivity (298.15 K, 101 kPa, x2 = 0.000175, x1 = 0.0001801): 0.4702 ± 0.0009 S/m
- electrical conductivity (298.15 K, 101 kPa, x2 = 0.0001791, x1 = 0.001798): 2.078 ± 0.004 S/m
- electrical conductivity (298.15 K, 101 kPa, x2 = 0.0001842, x1 = 0.0001801): 0.4735 ± 0.0009 S/m
- electrical conductivity (298.15 K, 101 kPa, x2 = 0.0001934, x1 = 0.0001801): 0.4766 ± 0.001 S/m
- electrical conductivity (298.15 K, 101 kPa, x2 = 0.0001954, x1 = 0.001798): 2.081 ± 0.004 S/m
- electrical conductivity (298.15 K, 101 kPa, x2 = 0.0002026, x1 = 0.0001801): 0.4791 ± 0.001 S/m
- electrical conductivity (298.15 K, 101 kPa, x2 = 0.0002111, x1 = 0.001798): 2.083 ± 0.004 S/m
- electrical conductivity (298.15 K, 101 kPa, x2 = 0.0002116, x1 = 0.0001801): 0.481 ± 0.001 S/m
- electrical conductivity (298.15 K, 101 kPa, x2 = 0.0002205, x1 = 0.0001801): 0.4824 ± 0.001 S/m
- electrical conductivity (298.15 K, 101 kPa, x2 = 0.0002268, x1 = 0.001798): 2.086 ± 0.004 S/m
- electrical conductivity (298.15 K, 101 kPa, x2 = 0.0002327, x1 = 0.0001801): 0.4842 ± 0.001 S/m
- electrical conductivity (298.15 K, 101 kPa, x2 = 0.0002427, x1 = 0.001798): 2.089 ± 0.004 S/m
- electrical conductivity (298.15 K, 101 kPa, x2 = 0.0002436, x1 = 0.0001801): 0.4857 ± 0.001 S/m
- electrical conductivity (298.15 K, 101 kPa, x2 = 0.0002524, x1 = 0.0001801): 0.4866 ± 0.001 S/m
- electrical conductivity (298.15 K, 101 kPa, x2 = 0.0002579, x1 = 0.001798): 2.091 ± 0.004 S/m
- electrical conductivity (298.15 K, 101 kPa, x2 = 0.0002612, x1 = 0.0001801): 0.4876 ± 0.001 S/m
- electrical conductivity (298.15 K, 101 kPa, x2 = 0.0002726, x1 = 0.0001801): 0.489 ± 0.001 S/m
- electrical conductivity (298.15 K, 101 kPa, x2 = 0.0002731, x1 = 0.001798): 2.094 ± 0.004 S/m
- electrical conductivity (298.15 K, 101 kPa, x2 = 0.0002851, x1 = 0.0001801): 0.4902 ± 0.001 S/m
- electrical conductivity (298.15 K, 101 kPa, x2 = 0.0002866, x1 = 0.001798): 2.096 ± 0.004 S/m
- electrical conductivity (298.15 K, 101 kPa, x2 = 0.0002984, x1 = 0.0001801): 0.4919 ± 0.001 S/m
- electrical conductivity (298.15 K, 101 kPa, x2 = 0.0003017, x1 = 0.001798): 2.099 ± 0.004 S/m
- electrical conductivity (298.15 K, 101 kPa, x2 = 0.0003094, x1 = 0.0001801): 0.4931 ± 0.001 S/m
- electrical conductivity (298.15 K, 101 kPa, x2 = 0.0003171, x1 = 0.001798): 2.101 ± 0.004 S/m
- electrical conductivity (298.15 K, 101 kPa, x2 = 0.0003315, x1 = 0.001798): 2.103 ± 0.004 S/m
- electrical conductivity (298.15 K, 101 kPa, x2 = 0.0003393, x1 = 0.0001801): 0.4959 ± 0.001 S/m
- electrical conductivity (298.15 K, 101 kPa, x2 = 0.0003465, x1 = 0.001798): 2.105 ± 0.004 S/m
- electrical conductivity (298.15 K, 101 kPa, x2 = 0.0003608, x1 = 0.001798): 2.108 ± 0.004 S/m
- electrical conductivity (298.15 K, 101 kPa, x2 = 0.0003754, x1 = 0.001798): 2.11 ± 0.01 S/m
- electrical conductivity (298.15 K, 101 kPa, x2 = 0.0003895, x1 = 0.001798): 2.112 ± 0.004 S/m
- electrical conductivity (298.15 K, 101 kPa, x2 = 0.000403, x1 = 0.001798): 2.114 ± 0.004 S/m
- electrical conductivity (298.15 K, 101 kPa, x2 = 0.0004205, x1 = 0.001798): 2.117 ± 0.004 S/m

Structure (SMILES): CC[n+]1ccn(CCOC)c1.O=S(=O)([N-]S(=O)(=O)C(F)(F)F)C(F)(F)F + CO
- viscosity (288.15 K, 100 kPa, x1 = 0.2999): 7.19 ± 0.17 mPa·s
- viscosity (288.15 K, 100 kPa, x1 = 0.5): 15.9 ± 0.29 mPa·s
- viscosity (288.15 K, 100 kPa, x1 = 0.5984): 22.75 ± 0.39 mPa·s
- viscosity (288.15 K, 100 kPa, x1 = 0.7934): 37.29 ± 0.54 mPa·s
- viscosity (293.15 K, 100 kPa, x1 = 1): 43.63 ± 0.49 mPa·s
- viscosity (298.15 K, 100 kPa, x1 = 0.1): 1.627 ± 0.06 mPa·s
- viscosity (298.15 K, 100 kPa, x1 = 0.2999): 5.44 ± 0.12 mPa·s
- viscosity (303.15 K, 100 kPa, x1 = 0.2999): 4.8 ± 0.1 mPa·s
- viscosity (303.15 K, 100 kPa, x1 = 0.5): 9.83 ± 0.17 mPa·s
- viscosity (303.15 K, 100 kPa, x1 = 1): 29.33 ± 0.33 mPa·s
- viscosity (308.15 K, 100 kPa, x1 = 0.1997): 2.658 ± 0.067 mPa·s
- viscosity (308.15 K, 100 kPa, x1 = 0.2999): 4.263 ± 0.09 mPa·s
- viscosity (308.15 K, 100 kPa, x1 = 0.3966): 6.33 ± 0.11 mPa·s
- viscosity (308.15 K, 100 kPa, x1 = 0.5984): 12 ± 0.19 mPa·s
- viscosity (308.15 K, 100 kPa, x1 = 0.7934): 18.08 ± 0.24 mPa·s
- viscosity (313.15 K, 100 kPa, x1 = 0.5984): 10.42 ± 0.17 mPa·s
- viscosity (313.15 K, 100 kPa, x1 = 0.6953): 13.27 ± 0.18 mPa·s
- viscosity (313.15 K, 100 kPa, x1 = 0.7934): 15.68 ± 0.2 mPa·s
- viscosity (318.15 K, 100 kPa, x1 = 0.2999): 3.449 ± 0.07 mPa·s

Structure (SMILES): CCC(C)O (stereo not drawn) + CC[n+]1ccn(C)c1.O=S(=O)([O-])C(F)(F)F
- viscosity (308.15 K, 101 kPa, x2 = 0): 2 ± 0.6 mPa·s

Structure (SMILES): CCC(C)O (stereo not drawn) + CCOS(=O)(=O)[O-].CC[n+]1ccn(C)c1
- viscosity (308.15 K, 101 kPa, x2 = 0): 2 ± 0.6 mPa·s
